Converted amounts (≈) assume the structure as drawn. Where two headings read alike, the source gives them in different places.
Columns and labels:
Tobacco Budworm = test: Foliar LC50 - Tobacco Budworm; type: in vivo; settings: for LC50: Heliothis virescens
Source text: This increase in activity is illustrated in Table II in which the test insect is the economically important tobacco budworm.
Foliar LC50 (ppm) - Tobacco Budworm

[1] = well known; c2, t2 pairs compared with c1 (III/IV) and t1 (VII/VIII) pairs; cited from earlier work

## CC1(C)C(C=C(Cl)Cl)C1C(=O)OC(C#N)c1cccc(Oc2ccccc2)c1 (racemic) [Example 1, (R,S)-(cyano)(3-phenoxyphenyl)methyl cis/trans-3-(2,2-dichloroethenyl)-2,2-dimethylcyclopropanecarboxylate]
Tobacco Budworm; Average of Tests 1-3, read-out: Foliar LC50, Average
  LC50: 13.2 µg/mL (≈ 31.7 µM)
Tobacco Budworm; Test 1, read-out: Foliar LC50
  LC50: 8.4 µg/mL (≈ 20.2 µM)
Tobacco Budworm; Test 2, read-out: Foliar LC50
  LC50: 18.7 µg/mL (≈ 44.9 µM)
Tobacco Budworm; Test 3, read-out: Foliar LC50
  LC50: 12.5 µg/mL (≈ 30 µM)

## CC1(C)C(C=C(Cl)Cl)C1C(=O)OC(C#N)c1cccc(Oc2ccccc2)c1 (racemic) [Example 5, (R,S)-(cyano)(3-phenoxyphenyl)methyl cis/trans-3-(2,2-dichloroethenyl)-2,2-dimethylcyclopropanecarboxylate]
Tobacco Budworm; Average of Tests 1-3
  Foliar LC50, Average: 9.9 ppm
Tobacco Budworm; Test 1
  Foliar LC50: 6.5 ppm
Tobacco Budworm; Test 2
  Foliar LC50: 12.3 ppm
Tobacco Budworm; Test 3
  Foliar LC50: 11.0 ppm

## CC1(C)[C@H](C(=O)O[C@H](C#N)c2cccc(Oc3ccccc3)c2)[C@@H]1C=C(Cl)Cl (relative stereo) [c2 enantiomer pair]
[1]
  insecticidal activity: more insecticidally active

## CC1(C)[C@H](C=C(Cl)Cl)[C@H]1C(=O)O[C@H](C#N)c1cccc(Oc2ccccc2)c1 (relative stereo) [t2 enantiomer pair]
[1]
  insecticidal activity: more insecticidally active

## CC1(C)[C@H](C(=O)O[C@H](C#N)c2cccc(Oc3ccccc3)c2)[C@@H]1C=C(Cl)Cl [I, (S)-(cyano)(3-phenoxyphenyl)methyl 1R,cis-3-(2,2-dichloroethenyl)-2,2-dimethylcyclopropanecarboxylate]
[1]
  insecticidal activity: most insecticidally active

## CC1(C)[C@H](C=C(Cl)Cl)[C@H]1C(=O)O[C@H](C#N)c1cccc(Oc2ccccc2)c1 [V]
[1]
  insecticidal activity: most insecticidally active

From patent US5028731A, “Preparation of mixtures of cypermethrin or cyfluthrin isomers enriched in more active species” (FMC Corporation, priority 1989, dated 1991)
